The values that follow come from US8946426B2, “Substituted bicyclic heterocyclic compounds as gamma secretase modulators” (Janssen Pharmaceuticals, Inc., priority 2009, dated 2015).

The test system of test [1] is Aβ42. Kind of test: Method 1: Aβ42 sandwich ELISA in supernatant of SKNBE2 cells carrying APP 695-wild type (Tables 7a, 7b). It counts as cell-based. The method, boiled down: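 SKNBE2 cells expressing wild-type APP695 were exposed to compound for 18 hours. Secreted Aβ42 was quantified by sandwich ELISA with C-terminal-selective capture, biotinylated 3D6 detection and TMB read-out at 450 nm. IC50 came from 4-parameter fits of % inhibition or % of untreated control; WST-1 monitored toxicity.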
A general note: ELISA stands for enzyme-linked immunosorbent assay.

For test [2], the system named is Aβ42. Nature of the test: In vivo efficacy: Aβ42 lowering in brain after single oral dose (Table 8). Conditions: mouse brain soluble fraction, ELISA, compared to untreated animals. The text has this: To determine whether acute administration of an Aβ42 lowering agent would reduce Aβ42 levels in vivo, non-transgenic rodents, e.g. mice or rats were used. Alternatively, two to three month old Tg2576 mice expressing APP695 containing the “Swedish” variant can be used or a transgenic mouse model developed by Dr. Fred Van Leuven (K.U.Leuven, Belgium) and co-workers, with neuron-specific expression of a clinical mutant of the human amyloid precursor protein [V7171] (Moechars et al., 1999 J. Biol. Chem. 274, 6483). Young transgenic mice have high levels of Aβ in the brain but no detectable Aβ deposition. At approximately 6-8 months of age, the transgenic mice start to display spontaneous, progressive accumulation of β-amyloid (Aβ) in the brain, eventually resulting in amyloid plaques within the subiculum, hippocampus and cortex. Animals treated with the Aβ42 lowering agent were examined and compared to those untreated or treated with vehicle and brain levels of soluble Aβ42 and total Aβ would be quantitated by standard techniques, for example, using ELISA. Treatment periods varied from hours to days and were adjusted based on the results of the Aβ42 lowering once a time course of onset of effect could be established.
A typical protocol for measuring Aβ42 lowering in vivo is shown but it is only one of many variations that could be used to optimize the levels of detectable Aβ. For example, Aβ42 lowering compounds were formulated in 20% of Captisol® (a sulfobutyl ether of β-cyclodextrin) in water or 20% hydroxypropyl β cyclodextrin. The Aβ42 lowering agents were administered as a single oral dose or by any acceptable route of administration to overnight fasted animals. After four hours, the animals were sacrificed and Aβ42 levels were analysed.
Blood was collected by decapitation and exsanguinations in EDTA-treated collection tubes. Blood was centrifuged at 1900 g for 10 min at 4° C. and the plasma recovered and flash frozen for later analysis. The brain was removed from the cranium and hindbrain. The cerebellum was removed and the left and right hemisphere were separated. The left hemisphere was stored at −18° C. for quantitative analysis of test compound levels. The right hemisphere was rinsed with phosphate-buffered saline (PBS) buffer and immediately frozen on dry ice and stored at −80° C. until homogenization for biochemical assays.
Mouse brains were resuspended in 10 volumes of 0.4% DEA (diethylamine)/50 mM NaCl pH 10 (for non-transgenic animals) or 0.1% 3-[(3-cholamidopropyl)-dimethyl-ammonio]-1-propanesulfonate (CHAPS) in tris buffered saline (TBS) (for transgenic animals) containing protease inhibitors (Roche-11873580001 or 04693159000 per gram of tissue, e.g. for 0.158 g brain, add 1.58 ml of 0.4% DEA. All samples were sonicated for 30 sec on ice at 20% power output (pulse mode). Homogenates were centrifuged at 221.300×g for 50 min. The resulting high speed supernatants were then transferred to fresh tubes and were optionally further purified before the next step. A portion of the supernatant was neutralized with 10% 0.5 M Tris-HCl and this was used to quantify Aβtotal.
The obtained supernatants were purified with Water Oasis HLB reverse phase columns (Waters Corp., Milford, Mass.) to remove non-specific immunoreactive material from the brain lysates prior subsequent Aβ detection. Using a vacuum manifold, all solutions were passed through the columns at a rate of approximately 1 ml per minute, so the vacuum pressure was adjusted accordingly throughout the procedure. Columns were preconditioned with 1 ml of 100% MeOH, before equilibration with 1 ml of H2O. Non-neutralized brain lysates were loaded onto the columns. The loaded samples were then washed twice with the first wash performed with 1 ml of 5% MeOH, and the second wash with 1 ml of 30% MeOH. Finally, the Aβ was eluted from the columns and into 100×30 mm glass tubes, with a solution of 90% MeOH with 2% NH4OH. […]

[3] abbreviates: Table 7b, averaged IC50, non-linear regression of percentage of control vs log concentration, 4-parameter equation.
Where [4] appears, read: Homo sapiens, SKNBE2, Table 7b, averaged IC50, non-linear regression of percentage of control vs log concentration, 4-parameter equation.
[5] abbreviates: Homo sapiens, Table 7a, SKNBE2 cells, compounds 18 h, XLfit 4-parameter fit of percent inhibition, top/bottom fixed to 100/0, hill slope 1.

For orientation: IC50 means the concentration that inhibits the measured activity by half. A higher IC50 goes with lower potency. `COc1cc(Nc2cc(C(F)(F)F)nn3cc(C)nc23)ccc1-c1cnc(C)o1` [Compound 195]: half-maximal inhibition in the test with Aβ42 [1] (setting [3]) (IC50) required 195 nM. The “Aβ42 (% Ctrl)_Mean” value in the test on Aβ42 [2] is on record as 89 % Ctrl.

For the compound `COc1cc(Nc2cccc3c2nc(-c2ccc(F)cc2)n3C)ccc1-c1cnc(C)o1` [Compound 16], the half-inhibitory concentration (IC50) is 9 nM in the test with Aβ42 [1] (setting [4]) and 11 nM in the test on Aβ42 [1] (setting [5]). Moreover, in the test with Aβ42 [2], the “Aβ42 (% Ctrl)_Mean” value is recorded as 58 % Ctrl.

As to `Cc1ncoc1-c1ccc(Nc2cccc3c2nc(-c2ccc(F)cc2)n3C)nc1` [Compound 10], the half-inhibitory concentration (IC50) with Aβ42 [1] (setting [4]) came to 355 nM; with Aβ42 [1] (setting [5]) it was 358 nM. Further, in the test with Aβ42 [2], the “Aβ42 (% Ctrl)_Mean” value is reported as 106 % Ctrl.

With `COc1cccc(-c2nc3c(Nc4ccc(-c5cnc(C)o5)nc4)cc(F)cc3n2C)c1` [Compound 105], the half-inhibitory concentration (IC50) in the test with Aβ42 [1] (setting [3]) was found to be 7 nM. In addition, the “Aβ42 (% Ctrl)_Mean” value with Aβ42 [2] was found to be 104 % Ctrl.

`COc1cc(Nc2cncc3c2nc(-c2ccc(F)cc2)n3C)ccc1-c1cnc(C)o1` [Compound 186]: the IC50 in the test with Aβ42 [1] (setting [3]) turned out to be 162 nM. The “Aβ42 (% Ctrl)_Mean” value with Aβ42 [2] was 52 % Ctrl.

The compound `COc1cc(Nc2nc(C(F)(F)F)cn3cc(C)nc23)ccc1-c1cnc(C)o1` [Compound 170] showed a concentration for half-maximal inhibition (IC50) in the test with Aβ42 [1] (setting [3]) of 3550 nM. Besides, the “Aβ42 (% Ctrl)_Mean” value with Aβ42 [2] came to 99 % Ctrl.

`Cc1ncc(-c2ccc(Nc3cccc4c3nc(-c3ccc(F)cc3)n4C(C)C)cn2)o1` [Compound 18]: the IC50 with Aβ42 [1] (setting [4]) amounted to 35 nM. For the same compound, in the test on Aβ42 [2], the “Aβ42 (% Ctrl)_Mean” value amounted to 54 % Ctrl.

For `COc1cc(Nc2cccc3c2nc(-c2ccc(F)cc2)n3C)ccc1-c1ocnc1C` [Compound 12], the IC50 in the test with Aβ42 [1] (setting [4]) came to 21 nM; in the test with Aβ42 [1] (setting [5]), 23 nM. Moreover, the “Aβ42 (% Ctrl)_Mean” value with Aβ42 [2] was determined as 56 % Ctrl.

For the compound `COc1cc(Nc2cccc3c2nc(CCC(F)(F)F)n3C)ccc1-c1ocnc1C` [Compound 11], the IC50 was determined as 71 nM in the test on Aβ42 [1] (setting [4]) and 72 nM in the test on Aβ42 [1] (setting [5]). In addition, in the test on Aβ42 [2], the “Aβ42 (% Ctrl)_Mean” value stood at 91 % Ctrl.

For `Cc1ncc(-c2ccc(Nc3nccc4c3nc(-c3ccc(F)cc3)n4C)cc2F)o1` [Compound 17], in the test with Aβ42 [1] (setting [4]), the IC50 was greater than 10000 nM. Also, the “Aβ42 (% Ctrl)_Mean” value in the test with Aβ42 [2] is listed as 106 % Ctrl.
